Drawing on ChEMBL document CHEMBL1671707, “Mycobacterium tuberculosis dihydrofolate reductase is not a target relevant to the antitubercular activity of isoniazid” (Antimicrob Agents Chemother, 2010), this text covers MIC, Activity and Ratio for 2 compounds.

Assay [1] deals with Mycolicibacterium smegmatis. The assay is described as follows: Antimicrobial activity against Mycobacterium smegmatis MC2 5089 harboring pYUB1062 plasmid overexpressing Mycobacterium tuberculosis Rv1484 InhA gene by broth microdilution method. The format is functional. In general terms: In broth dilution the organism is exposed to a series of concentrations in liquid medium.

The subject of assay [2] is Mycolicibacterium smegmatis. The assay is described as follows: Antimicrobial activity against Mycobacterium smegmatis MC2 5097 harboring pYUB1062 plasmid overexpressing Mycobacterium tuberculosis Rv2763c DfrA gene by broth microdilution method. The assay is classed as functional.
Assay [3] concerns Mycolicibacterium smegmatis. Description: Antimicrobial activity against Mycobacterium smegmatis MC2 4517 harboring pYUB1062 plasmid overexpressing Mycobacterium tuberculosis Rv3248c SahH gene by broth microdilution method. The assay is classed as functional.
Assay [4] relates to Mycolicibacterium smegmatis. Description: Antimicrobial activity against Mycobacterium smegmatis MC2 4517 harboring pYUB1062 plasmid overexpressing Mycobacterium tuberculosis Rv0753c MmsA gene by broth microdilution method. The assay is classed as functional.
Assay [5] concerns Mycolicibacterium smegmatis. The assay is described as follows: Antimicrobial activity against Mycobacterium smegmatis MC2 4517 harboring pYUB1062 plasmid overexpressing Mycobacterium tuberculosis Rv1187 RocA gene by broth microdilution method. The assay is classed as functional.
Assay [6] has as its system Mycolicibacterium smegmatis. The assay is described as follows: Antimicrobial activity against Mycobacterium smegmatis MC2 4517 harboring pYUB1062 plasmid overexpressing Mycobacterium tuberculosis Rv0155 PntAA gene by broth microdilution method. The format is functional.
Assay [7] relates to Mycolicibacterium smegmatis. The assay is described as follows: Antimicrobial activity against Mycobacterium smegmatis MC2 4517 harboring pYUB1062 plasmid overexpressing Mycobacterium tuberculosis Rv2623 universal stress protein gene by broth microdilution method. The assay is classed as functional.
In assay [8] the test system is Mycolicibacterium smegmatis. The assay is described as follows: Antimicrobial activity against Mycobacterium smegmatis MC2 4517 harboring pYUB1062 plasmid overexpressing Mycobacterium tuberculosis Rv1996 universal stress protein gene by broth microdilution method. The assay is classed as functional.
Assay [9] has as its system Mycolicibacterium smegmatis. The assay is described as follows: Antimicrobial activity against Mycobacterium smegmatis MC2 4517 harboring pYUB1062 plasmid overexpressing Mycobacterium tuberculosis Rv0468 FadB2 gene by broth microdilution method. The format is functional.
Assay [10] concerns Mycolicibacterium smegmatis. Description: Antimicrobial activity against Mycobacterium smegmatis MC2 4517 harboring pYUB1062 plasmid overexpressing Mycobacterium tuberculosis Rv2691 CeoB/TrKA gene by broth microdilution method. The format is functional.
Assay [11] relates to Mycolicibacterium smegmatis. The assay is described as follows: Antimicrobial activity against Mycobacterium smegmatis MC2 4517 harboring pYUB1062 plasmid overexpressing Mycobacterium tuberculosis Rv0091 Mtn/Sah gene by broth microdilution method. The assay is classed as functional, organism-based.
Assay [12] has as its system Mycolicibacterium smegmatis. The assay is described as follows: Antimicrobial activity against Mycobacterium smegmatis MC2 4517 harboring pYUB1062 plasmid overexpressing Mycobacterium tuberculosis Rv2858c Aldc gene by broth microdilution method. The format is functional.
For assay [13], the system named is Mycolicibacterium smegmatis. Description: Antimicrobial activity against Mycobacterium smegmatis MC2 4517 harboring pYUB1062 plasmid overexpressing Mycobacterium tuberculosis Rv1059 unknown gene by broth microdilution method. The format is functional.
Assay [14] relates to Mycolicibacterium smegmatis. Description: Antimicrobial activity against Mycobacterium smegmatis MC2 4517 harboring pYUB1062 plasmid overexpressing Mycobacterium tuberculosis Rv0926c unknown gene by broth microdilution method. The assay is classed as functional.
Assay [15] relates to Mycolicibacterium smegmatis. The assay is described as follows: Antimicrobial activity against Mycobacterium smegmatis MC2 4517 harboring pYUB1062 plasmid overexpressing Mycobacterium tuberculosis Rv3777 probable oxidoreductase gene by broth microdilution method. The format is functional.
The test system of assay [16] is Mycolicibacterium smegmatis. Description: Antimicrobial activity against Mycobacterium smegmatis MC2 4517 harboring pYUB1062 plasmid overexpressing Mycobacterium tuberculosis Rv2971 probable oxidoreductase gene by broth microdilution method. The assay is classed as functional, organism-based.
In assay [17] the test system is Mycolicibacterium smegmatis. The assay is described as follows: Antimicrobial activity against Mycobacterium smegmatis MC2 4517 harboring pYUB1062 plasmid overexpressing Mycobacterium tuberculosis Rv2766 FabG5 gene by broth microdilution method. The assay is classed as functional.
In assay [18] the test system is Mycolicibacterium smegmatis. The assay is described as follows: Antimicrobial activity against Mycobacterium smegmatis MC2 4517 harboring pYUB1062 plasmid overexpressing Mycobacterium tuberculosis Rv2671 RibD gene by broth microdilution method. The format is functional.
Assay [19] relates to Mycobacterium tuberculosis. Description: Antimicrobial activity against Mycobacterium tuberculosis H37Rv harboring pMV261::dfrA plasmid by MTT assay. The format is functional, organism-based. (In general: Tetrazolium assays rely on reduction of a dye to a coloured formazan, in cell work by metabolically active cells.)
The test system of assay [20] is Mycobacterium tuberculosis. Description: Antimicrobial activity against Mycobacterium tuberculosis H37Rv harboring pMV261::InhA plasmid by MTT assay. The assay is classed as functional, organism-based.
The test system of assay [21] is Mycobacterium tuberculosis. Description: Ratio of MIC for Mycobacterium tuberculosis H37RV harboring pMV261::InhA plasmid to MIC for wild-type Mycobacterium tuberculosis H37Rv. The assay is classed as functional.

In brackets after ≈: the same amount, converted by molar mass. Activity calls are given as the source filed them. No cut-off for these calls is given here.

As usually defined, the MIC is the lowest concentration that inhibits growth of the organism. Turning to `CCc1cc(C(N)=S)ccn1` [ETHIONAMIDE], the minimal inhibitory concentration (MIC) in assay [1] worked out at 150 µg/mL (≈ 902 µM); in assay [2], 9.4 µg/mL (≈ 56.5 µM); in assay [3], 9.4 µg/mL (≈ 56.5 µM); in assay [4], 9.4 µg/mL (≈ 56.5 µM); in assay [5], 9.4 µg/mL (≈ 56.5 µM); in [6], 9.4 µg/mL (≈ 56.5 µM). The MIC in [7], in [8], in assay [9], in assay [10], in assay [12] and in [13] was 9.4 µg/mL (≈ 56.5 µM) throughout. The MIC in assay [14], in [15], in assay [17] and in [18] was 9.4 µg/mL (≈ 56.5 µM) in each case. In addition, the MIC result in [11] and in [16] was “inactive” throughout.

As for `NNC(=O)c1ccncc1` [ISONIAZID], the MIC in assay [1] amounted to 300 µg/mL (≈ 2190 µM); in assay [2] it was 4.7 µg/mL (≈ 34.3 µM); in assay [3], 4.7 µg/mL (≈ 34.3 µM); in assay [4], 4.7 µg/mL (≈ 34.3 µM); in [5], 4.7 µg/mL (≈ 34.3 µM); in assay [6], 4.7 µg/mL (≈ 34.3 µM). Also, the MIC in [7], in assay [8], in assay [9], in assay [10], in [12] and in assay [13] was 4.7 µg/mL (≈ 34.3 µM) in each case. Besides, the minimal inhibitory concentration (MIC) in [14], in [15], in assay [17] and in [18] was 4.7 µg/mL (≈ 34.3 µM) throughout. The MIC result in [11] and in assay [16] was “inactive” throughout. In addition, the result in assay [19] was Active. Moreover, the outcome in assay [20] was inactive. Besides, in [21], the Ratio was 20.
